Patent publication US12404289B2 (Gilead Sciences, Inc., priority 2020, dated 2025)
Read-outs that look alike come from different tables or passages of the source.

How the values were obtained:
Assay type in all cases: cell-based
[1] = test system: SARS-CoV-2; assay: SARS-CoV-2 antiviral assay (A549-hACE2, Nano luciferase); settings: Table 4
[2] = test system: Respiratory syncytial virus (RSV) strain A2; assay: RSV antiviral assay (HEp-2, 96 well); settings: Table 3
[3] = test system: Respiratory syncytial virus (RSV) strain A2; assay: Hep-2 RSV2 384-well assay (EC50-HEP2-384); settings: human respiratory syncytial virus, HEp-2, 96 h, HEp-2 cells, RSV A2, MOI=4, 4 days, Table 3
[4] = Severe acute respiratory syndrome coronavirus 2, 48 h, A549-hACE2 cells, SARS-CoV2-Nano, MOI 0.025, 48 h, read-out: EC50 SARS CoV2
[5] = human respiratory syncytial virus, HEp-2, 96 h, read-out: EC50 RSV HEP2 96, HEp-2 cells, RSV A2, MOI=4, 4 days, 96 well
[6] = A549-hACE2 cells, SARS-CoV2-Nano, MOI 0.025, 48 h, read-out: EC50 SARS CoV2
[7] = read-out: EC50 RSV HEP2 96, HEp-2 cells, RSV A2, MOI=4, 4 days, 96 well

Structure (SMILES) | EC50 [1, 4] | EC50 [2, 5] | also measured
CC(C)C(=O)O[C@H]1[C@@H](OC(=O)C(C)C)[C@](C#N)(c2ccc3c(N)ncnn23)O[C@@H]1COP(=O)(N[C@@H](C)C(=O)OC1CC2(CCC2)C1)Oc1ccc(C(C)(C)C)cc1 (stereo partly drawn) [Example 66, [(2R,3R,4R,5R)-5-(4-aminopyrrolo[2,1-f][1,2,4]triazin-7-yl)-2-[[(4-tert-butylphenoxy)-[[(1S)-1-methyl-2-oxo-2-spiro[3.3]heptan-2-yloxy-ethyl]amino]phosphoryl]oxymethyl]-5-cyano-4-(2-methylpropanoyloxy)tetrahydrofuran-3-yl] 2-methylpropanoate] | 207 nM | 61.9 nM | –
CCC(CC)COC(=O)[C@H](C)NP(=O)(OC[C@H]1O[C@@](C#N)(c2ccc3c(N)ncnn23)[C@H](OC(C)=O)[C@@H]1OC(C)=O)Oc1cccc2ccccc12 (single isomer, unassigned) [Example 78a] | – | – | EC50 [1, 6]: 117 nM; EC50 [2, 7]: 65.2 nM
C[C@H](NP(=O)(OC[C@H]1O[C@@](C#N)(c2ccc3c(N)ncnn23)[C@H](O)[C@@H]1O)Oc1ccc(C(C)(C)C)cc1)C(=O)OC1CC2(CCCC2)C1 (stereo partly drawn) [Example 97a, Spiro[3.4]octan-2-yl ((((2R,3S,4R,5R)-5-(4-aminopyrrolo[2,1-f][1,2,4]triazin-7-yl)-5-cyano-3,4-dihydroxytetrahydrofuran-2-yl)methoxy)(4-(tert-butyl)phenoxy)phosphoryl)-L-alaninate] | – | – | EC50 [3]: 103 nM
CCC(C)(C)CCOC(=O)[C@H](C)NP(=O)(OC[C@H]1O[C@@](C#N)(c2ccc3c(N)ncnn23)[C@H](OC(=O)C(C)C)[C@@H]1OC(=O)C(C)C)Oc1ccc(C(C)(C)C)cc1 (stereo partly drawn) [Example 160, (2R,3R,4R,5R)-2-(4-aminopyrrolo[2,1-f][1,2,4]triazin-7-yl)-5-((((4-(tert-butyl)phenoxy)(((S)-1-((3,3-dimethylpentyl)oxy)-1-oxopropan-2-yl)amino)phosphoryl)oxy)methyl)-2-cyanotetrahydrofuran-3,4-diyl bis(2-methylpropanoate)] | – | – | EC50 [3]: 219 nM
COCCOC(=O)[C@H](C)NP(=O)(OC[C@H]1O[C@@](C#N)(c2ccc3c(N)ncnn23)[C@H](O)[C@@H]1O)Oc1ccc(C(C)(C)C)cc1 (stereo partly drawn) [Example 141, 2-methoxyethyl ((((2R,3S,4R,5R)-5-(4-aminopyrrolo[2,1-f][1,2,4]triazin-7-yl)-5-cyano-3,4-dihydroxytetrahydrofuran-2-yl)methoxy)(4-(tert-butyl)phenoxy)phosphoryl)-L-alaninate] | – | – | EC50 [3]: 305 nM
CCOC(=O)[C@H](C)NP(=O)(OC[C@H]1O[C@@](C#N)(c2ccc3c(N)ncnn23)[C@H](OC(=O)CC)[C@@H]1OC(=O)CC)Oc1ccc(C(C)(C)C)cc1 (stereo partly drawn) [Example 108, (2R,3R,4R,5R)-2-(4-aminopyrrolo[2,1-f][1,2,4]triazin-7-yl)-5-((((4-(tert-butyl)phenoxy)(((S)-1-ethoxy-1-oxopropan-2-yl)amino)phosphoryl)oxy)methyl)-2-cyanotetrahydrofuran-3,4-diyl Dipropionate] | 82.9 nM | 27.7 nM | –
CCC(=O)O[C@H]1[C@@H](OC(=O)CC)[C@](C#N)(c2ccc3c(N)ncnn23)O[C@@H]1COP(=O)(N[C@@H](C)C(=O)OCC(CC)CC)Oc1cccc2ccccc12 (single isomer, unassigned) [Example 79a] | – | – | EC50 [1, 6]: 126 nM; EC50 [2, 7]: 61.2 nM
CCC(CC)COC(=O)[C@H](C)NP(=O)(OC[C@H]1O[C@@](C#N)(c2ccc3c(N)ncnn23)[C@H](O)[C@@H]1O)Oc1cccc2ccccc12 (stereo partly drawn) [Intermediate S2, 2-Ethylbutyl ((((2R,3S,4R,5R)-5-(4-aminopyrrolo[2,1-f][1,2,4]triazin-7-yl)-5-cyano-3,4-dihydroxytetrahydrofuran-2-yl)methoxy)(naphthalen-1-yloxy)phosphoryl)-L-alaninate] | 207 nM | 84.8 nM | –
CCC(=O)O[C@H]1[C@@H](OC(=O)CC)[C@](C#N)(c2ccc3c(N)ncnn23)O[C@@H]1COP(=O)(N[C@@H](C)C(=O)OC1CCC1)Oc1ccc(C2CC2)cc1 (single isomer, unassigned) [Example 54a] | 102 nM | 13.1 nM | –
C[C@H](NP(=O)(OC[C@H]1O[C@@](C#N)(c2ccc3c(N)ncnn23)[C@H](O)[C@@H]1O)Oc1cccc2ccccc12)C(=O)OC1CCC1 (single isomer, unassigned) [Intermediate P7a-2] | – | – | EC50 ([1]; Severe acute respiratory syndrome coronavirus 2, 48 h, read-out: EC50 SARS CoV2, A549-hACE2 cells, SARS-CoV2-Nano, MOI 0.025, 48 h): 275 nM; EC50 [2, 7]: 65.1 nM
CCC(=O)O[C@H]1[C@@H](OC(=O)CC)[C@](C#N)(c2ccc3c(N)ncnn23)O[C@@H]1COP(=O)(N[C@@H](C)C(=O)OC1CCC1)Oc1ccc(C2CC2)cc1 (single isomer, unassigned) [Example 54b] | – | – | EC50 [1, 6]: 164 nM; EC50 [2, 7]: 20.9 nM
CCC(=O)O[C@H]1[C@@H](OC(=O)CC)[C@](C#N)(c2ccc3c(N)ncnn23)O[C@@H]1COP(=O)(N[C@@H](C)C(=O)OC1CC2(CCC2)C1)Oc1cccc2ccccc12 (single isomer, unassigned) [Example 87a] | – | – | EC50 [1, 6]: 60.2 nM; EC50 [2, 7]: 31.1 nM
CC(C)C(=O)O[C@H]1[C@@H](OC(=O)C(C)C)[C@](C#N)(c2ccc3c(N)ncnn23)O[C@@H]1COP(=O)(N[C@@H](C)C(=O)OCC1CCC1)Oc1ccc(C(C)(C)C)cc1 (stereo partly drawn) [Example 60, [(2R,3R,4R,5R)-5-(4-aminopyrrolo[2,1-f][1,2,4]triazin-7-yl)-2-[[(4-tert-butylphenoxy)-[[(1S)-2-(cyclobutylmethoxy)-1-methyl-2-oxo-ethyl]amino]phosphoryl]oxymethyl]-5-cyano-4-(2-methylpropanoyloxy)tetrahydrofuran-3-yl] 2-methylpropanoate] | 180 nM | 64 nM | –
CC(C)COC(=O)[C@H](C)NP(=O)(OC[C@H]1O[C@@](C#N)(c2ccc3c(N)ncnn23)[C@H](O)[C@@H]1O)Oc1ccc(C(C)(C)C)cc1 (stereo partly drawn) [Example 118, isobutyl ((((2R,3S,4R,5R)-5-(4-aminopyrrolo[2,1-f][1,2,4]triazin-7-yl)-5-cyano-3,4-dihydroxytetrahydrofuran-2-yl)methoxy)(4-(tert-butyl)phenoxy)phosphoryl)-L-alaninate] | 329 nM | 23.5 nM | –
CCC(=O)O[C@H]1[C@@H](OC(=O)CC)[C@](C#N)(c2ccc3c(N)ncnn23)O[C@@H]1COP(=O)(N[C@@H](C)C(=O)OC)Oc1ccc(C(C)(C)C)cc1 (stereo partly drawn) [Example 113, (2R,3R,4R,5R)-2-(4-aminopyrrolo[2,1-f][1,2,4]triazin-7-yl)-5-((((4-(tert-butyl)phenoxy)(((S)-1-methoxy-1-oxopropan-2-yl)amino)phosphoryl)oxy)methyl)-2-cyanotetrahydrofuran-3,4-diyl Dipropionate] | 126 nM | 22.1 nM | –
CCC(CC)COC(=O)[C@H](C)NP(=O)(OC[C@H]1O[C@@](C#N)(c2ccc3c(N)ncnn23)[C@H](OC(=O)C(C)C)[C@@H]1OC(=O)C(C)C)Oc1cccc2ccccc12 (stereo partly drawn) [Example 70, [(2R,3R,4R,5R)-5-(4-aminopyrrolo[2,1-f][1,2,4]triazin-7-yl)-5-cyano-2-[[[[(1S)-2-(2-ethylbutoxy)-1-methyl-2-oxo-ethyl]amino]-(1-naphthyloxy)phosphoryl]oxymethyl]-4-(2-methylpropanoyloxy)tetrahydrofuran-3-yl] 2-methylpropanoate] | 319 nM | 49 nM | –
CCC(C)(C)COC(=O)[C@H](C)NP(=O)(OC[C@H]1O[C@@](C#N)(c2ccc3c(N)ncnn23)[C@H](O)[C@@H]1O)Oc1ccc(C(C)(C)C)cc1 (stereo partly drawn) [Example 121, 2,2-dimethylbutyl ((((2R,3S,4R,5R)-5-(4-aminopyrrolo[2,1-f][1,2,4]triazin-7-yl)-5-cyano-3,4-dihydroxytetrahydrofuran-2-yl)methoxy)(4-(tert-butyl)phenoxy)phosphoryl)-L-alaninate] | 110 nM | 23.5 nM | –
CC(=O)O[C@H]1[C@@H](OC(C)=O)[C@](C#N)(c2ccc3c(N)ncnn23)O[C@@H]1COP(=O)(N[C@@H](C)C(=O)OC1CCC1)Oc1ccc(C2CC2)cc1 (single isomer, unassigned) [Example 53b] | 103 nM | – | EC50 [2, 7]: 21.2 nM
CCOC(=O)[C@H](C)NP(=O)(OC[C@H]1O[C@@](C#N)(c2ccc3c(N)ncnn23)[C@H](O)[C@@H]1O)Oc1cccc2ccccc12 (stereo partly drawn) [Intermediate S1, ethyl (2S)-2-[[[(2R,3S,4R,5R)-5-(4-aminopyrrolo[2,1-f][1,2,4]triazin-7-yl)-5-cyano-3,4-dihydroxy-tetrahydrofuran-2-yl]methoxy-(1-naphthyloxy)phosphoryl]amino]propanoate] | 714 nM | 93.3 nM | –
C[C@H](NP(=O)(OC[C@H]1O[C@@](C#N)(c2ccc3c(N)ncnn23)[C@H](O)[C@@H]1O)Oc1ccc(C(C)(C)C)cc1)C(=O)OCC1CCC1 (stereo partly drawn) [Example 59, cyclobutylmethyl (2S)-2-[[[(2R,3S,4R,5R)-5-(4-aminopyrrolo[2,1-f][1,2,4]triazin-7-yl)-5-cyano-3,4-dihydroxy-tetrahydrofuran-2-yl]methoxy-(4-tert-butylphenoxy)phosphoryl]amino]propanoate] | 160 nM | 25.3 nM | –
CCC(=O)O[C@H]1[C@@H](OC(=O)CC)[C@](C#N)(c2ccc3c(N)ncnn23)O[C@@H]1COP(=O)(N[C@@H](C)C(=O)OC1CCC1)Oc1ccccc1 (stereo partly drawn) [Example 107, (2R,3R,4R,5R)-2-(4-aminopyrrolo[2,1-f][1,2,4]triazin-7-yl)-2-cyano-5-((((((S)-1-cyclobutoxy-1-oxopropan-2-yl)amino)(phenoxy)phosphoryl)oxy)methyl)tetrahydrofuran-3,4-diyl Dipropionate] | 180 nM | 20.1 nM | –
